Converted amounts (≈) assume the structure as drawn.
Tests used:
Type in all cases: functional
Enterococcus faecium [1] = assay: Antimicrobial activity against Vancomycin-susceptible Enterococcus faecium assessed as percent resistant isolates by broth microdilution method
Staphylococcus [2] = assay: Antimicrobial activity against Oxacillin-susceptible coagulase-negative Staphylococcus assessed as percent susceptible isolate by broth microdilution method
Enterococcus faecalis [3] = assay: Antimicrobial activity against Vancomycin-susceptible Enterococcus faecalis assessed as percent susceptible isolate by broth microdilution method
Enterococcus faecalis [4] = assay: Antimicrobial activity against Vancomycin-susceptible Enterococcus faecalis by broth microdilution method
Staphylococcus [5] = assay: Antimicrobial activity against Oxacillin-susceptible coagulase-negative Staphylococcus by broth microdilution method
Streptococcus [6] = assay: Antimicrobial activity against Beta-hemolytic Streptococcus assessed as percent susceptible isolate by broth microdilution method
Enterococcus faecalis [7] = assay: Antimicrobial activity against Vancomycin-nonsusceptible Enterococcus faecalis assessed as percent susceptible isolate by broth microdilution method
Staphylococcus [8] = assay: Antimicrobial activity against Oxacillin-resistant coagulase-negative Staphylococcus by broth microdilution method
Enterococcus faecium [9] = assay: Antimicrobial activity against Vancomycin-susceptible Enterococcus faecium assessed as percent susceptible isolate by broth microdilution method
Enterococcus faecium [10] = assay: Antimicrobial activity against Vancomycin-susceptible Enterococcus faecium by broth microdilution method
Enterococcus faecalis [11] = assay: Antimicrobial activity against Vancomycin-nonsusceptible Enterococcus faecalis by broth microdilution method
Streptococcus [12] = assay: Antimicrobial activity against viridans group Streptococcus assessed as percent susceptible isolate by broth microdilution method
Enterococcus faecium [13] = assay: Antimicrobial activity against Vancomycin-nonsusceptible Enterococcus faecium assessed as percent susceptible isolate by broth microdilution method
Staphylococcus [14] = assay: Antimicrobial activity against Oxacillin-resistant coagulase-negative Staphylococcus assessed as percent susceptible isolate by broth microdilution method
Staphylococcus aureus [15] = assay: Antimicrobial activity against Oxacillin-resistant Staphylococcus aureus by broth microdilution method
Enterococcus faecium [16] = assay: Antimicrobial activity against Vancomycin-nonsusceptible Enterococcus faecium by broth microdilution method
Staphylococcus aureus [17] = assay: Antimicrobial activity against Oxacillin-resistant Staphylococcus aureus assessed as percent resistant isolate by broth microdilution method
Staphylococcus aureus [18] = assay: Antimicrobial activity against Oxacillin-susceptible Staphylococcus aureus by broth microdilution method
Staphylococcus aureus [19] = assay: Antimicrobial activity against Oxacillin-susceptible Staphylococcus aureus assessed as percent susceptible isolate by broth microdilution method
Streptococcus [20] = assay: Antimicrobial activity against viridans group Streptococcus by broth microdilution method
Enterococcus faecalis [21] = assay: Antimicrobial activity against Vancomycin-nonsusceptible Enterococcus faecalis assessed as percent resistant isolates by broth microdilution method
Enterococcus faecium [22] = assay: Antimicrobial activity against Vancomycin-nonsusceptible Enterococcus faecium assessed as percent resistant isolates by broth microdilution method
Enterococcus faecalis [23] = assay: Antimicrobial activity against Vancomycin-susceptible Enterococcus faecalis assessed as percent resistant isolates by broth microdilution method
Streptococcus [24] = assay: Antimicrobial activity against Beta-hemolytic Streptococcus assessed as percent resistant isolates by broth microdilution method
Streptococcus [25] = assay: Antimicrobial activity against Beta-hemolytic Streptococcus by broth microdilution method
Staphylococcus [26] = assay: Antimicrobial activity against Oxacillin-susceptible coagulase-negative Staphylococcus assessed as percent resistant isolate by broth microdilution method
Staphylococcus aureus [27] = assay: Antimicrobial activity against Oxacillin-susceptible Staphylococcus aureus assessed as percent resistant isolates by broth microdilution method
Staphylococcus [28] = assay: Antimicrobial activity against Oxacillin-resistant coagulase-negative Staphylococcus assessed as percent resistant isolate by broth microdilution method
Streptococcus [29] = assay: Antimicrobial activity against viridans group Streptococcus assessed as percent resistant isolates by broth microdilution method
Staphylococcus aureus [30] = assay: Antimicrobial activity against Oxacillin-resistant Staphylococcus aureus assessed as percent susceptible isolate by broth microdilution method

Compound | Activity (Staphylococcus [2]) [%] | MIC50 (Staphylococcus [5]) [µg/mL] | MIC90 (Staphylococcus [5]) [µg/mL] | Activity (Streptococcus [6]) [%] | MIC90 (Staphylococcus [8]) [µg/mL] | Activity (Streptococcus [12]) [%] | Activity (Staphylococcus [14]) [%] | MIC50 (Staphylococcus aureus [15]) [µg/mL] | MIC90 (Staphylococcus aureus [15]) [µg/mL] | Activity (Staphylococcus aureus [17]) [%] | MIC50 (Staphylococcus aureus [18]) [µg/mL] | MIC90 (Staphylococcus aureus [18]) [µg/mL] | Activity (Staphylococcus aureus [19]) [%] | MIC50 (Streptococcus [20]) [µg/mL] | MIC90 (Streptococcus [20]) [µg/mL] | Activity (Streptococcus [24]) [%] | MIC50 (Streptococcus [25]) [µg/mL] | MIC90 (Streptococcus [25]) [µg/mL] | other results
CC(=O)NC[C@H]1CN(c2ccc(N3CCOCC3)c(F)c2)C(=O)O1 [LINEZOLID] | 99.9 | 1 (≈ 2.96 µM) | 1 (≈ 2.96 µM) | 100 | 1 (≈ 2.96 µM) | 99.9 | 99.5 | 1 (≈ 2.96 µM) | 2 (≈ 5.93 µM) | 0.04 | 2 (≈ 5.93 µM) | 2 (≈ 5.93 µM) | 100 | 1 (≈ 2.96 µM) | 1 (≈ 2.96 µM) | 1.3 | 1 (≈ 2.96 µM) | 1 (≈ 2.96 µM) | Activity (Enterococcus faecium [1]): 0.3%; Activity (Enterococcus faecalis [3]): 99.8%; MIC50 (Enterococcus faecalis [4]): 1 µg/mL (≈ 2.96 µM); MIC90 (Enterococcus faecalis [4]): 2 µg/mL (≈ 5.93 µM); Activity (Enterococcus faecalis [7]): 98.6%; MIC50 (Staphylococcus [8]): 1 µg/mL (≈ 2.96 µM); Activity (Enterococcus faecium [9]): 99.6%; MIC50 (Enterococcus faecium [10]): 1 µg/mL (≈ 2.96 µM); MIC90 (Enterococcus faecium [10]): 2 µg/mL (≈ 5.93 µM); MIC50 (Enterococcus faecalis [11]): 1 µg/mL (≈ 2.96 µM); MIC90 (Enterococcus faecalis [11]): 2 µg/mL (≈ 5.93 µM); Activity (Enterococcus faecium [13]): 97.6%; MIC50 (Enterococcus faecium [16]): 1 µg/mL (≈ 2.96 µM); MIC90 (Enterococcus faecium [16]): 2 µg/mL (≈ 5.93 µM); Activity (Enterococcus faecalis [21]): 1.4%; Activity (Enterococcus faecium [22]): 1.8%; Activity (Enterococcus faecalis [23]): 0.1%
CCC[C@@H]1C[C@@H](C(=O)N[C@@H]([C@H]2O[C@H](SC)[C@H](O)[C@@H](O)[C@H]2O)[C@H](C)Cl)N(C)C1 [CLINDAMYCIN] | 93.5 | ≤ 0.25 | ≤ 0.25 | 91.4 | > 2 | 89.8 | 57 | > 2 | > 2 | 52.1 | ≤ 0.25 | ≤ 0.25 | 95.8 | 0.25 (≈ 0.588 µM) | 0.5 (≈ 1.18 µM) | 19.9 | 0.25 (≈ 0.588 µM) | 0.25 (≈ 0.588 µM) | Activity (Staphylococcus [26]): 5.7%; MIC (Staphylococcus [5]): ≤ 0.25 µg/mL; Activity (Staphylococcus aureus [27]): 4%; Activity (Staphylococcus [28]): 41.7%; Activity (Streptococcus [29]): 9.5%; MIC (Staphylococcus aureus [18]): ≤ 0.25 µg/mL; MIC (Streptococcus [20]): 0.25 µg/mL (≈ 0.588 µM); Activity (Staphylococcus aureus [30]): 47.8%; MIC (Streptococcus [25]): 0.25 µg/mL (≈ 0.588 µM)
